Experimental data taken from patent US20070148159A1, “Use of crotoxin as an analgesic - CIP” (priority 2005, published 2007).
Where a name gives a salt, the structure may show the parent alone.

Columns and labels:
mice = assay type: in vivo, mouse; settings: for inhibition of the activity of Crotoxin: summary statement on antagonist studies
[1] = cited from earlier work
[2] = assay type: in vivo; settings: hot-plate model; test end point 180 minutes

| Structure (SMILES) | inhibition of the activity of Crotoxin (mice) | analgesic potency relative to morphine ([1]; halved again when given orally rather than parenterally) | duration of activity ([1]; in vivo) | onset of activity ([1]; in vivo) | time of maximal effect on hot-plate response [2] | effect on Crotoxin-induced analgesia, hotplate test (mice; Atropine 0.25-1 mg/kg, Naloxone 1.25-5 mg/kg) |
| --- | --- | --- | --- | --- | --- | --- |
| CN1[C@@H]2CC[C@H]1C[C@@H](OC(=O)C(CO)c1ccccc1)C2 (stereo partly shown) [Atropine] | failed to inhibit | – | – | – | – | – |
| CCOC(=O)C1(c2ccccc2)CCN(C)CC1 [Dolantin, Meperidine hydrochloride] | – | one-tenth as potent an analgesic as morphine | 2 to 4 h | 10 to 45 min | 30 min | – |
| C=CCN1CC[C@]23c4c5ccc(O)c4O[C@H]2C(=O)CC[C@@]3(O)[C@H]1C5 [Naloxone] | failed to inhibit | – | – | – | – | no effect |
